Data on 7 molecules can be found in patent US20260232625A1, “NOVEL DECURSIN DERIVATIVE AND USE THEREOF FOR PREVENTING OR TREATING NON-SMALL CELL LUNG CANCER” (JAEIN R&P INC., priority 2023, published 2026).

Entries after “also recorded” stand apart in the source; their conditions may differ. Bounds are passed on as bounds.

For data set [1], the system named is A549 cells. The data set is described as follows: Co-administration with gefitinib, MTT cell viability and synergy score in A549 cells. Type of data set: cell-based, human. The following applies: for cytotoxicity against A549 on co-administration with gefitinib: gefitinib 1.25-20 μM plus compound 6.25-100 μM, compared with decursin plus gefitinib, FIG. 2. The method, then: (§1) A549 (human lung cancer cells) were obtained from the American Type Culture Collection (ATCC) and used. The cells were cultured in a medium containing 10% FBS, 1% penicillin (10,000 units/mL), and streptomycin (10 mg/mL), or in Dulbecco's Modified Eagle's Medium (DMEM), at 37° C. under 5% CO2 conditions.
Nevertheless, the compound of Example 5, when used as a single agent, was somewhat limited in its efficacy, and therefore its potential as a co-administration agent with existing non-small cell lung cancer therapeutic agents was examined. To this end, gefitinib (Iressa) was selected, and the compound of Example 5, together with decursin for comparison, was co-administered to A549 cells, and the cytotoxicity thereof was measured. To further evaluate dose dependency, gefitinib was administered at concentrations of 0 μM (untreated), 1.25 μM, 2.5 μM, 5 μM, 10 μM, and 20 μM, in combination with either decursin or the […], each administered at concentrations of 0 μM (untreated), 6.25 μM, 12.5 μM, 25 μM, 50 μM, and 100 μM. The relative cell viability was measured by setting the viability of the untreated group, i.e., cells not treated with either gefitinib or decursin/decursin derivative, to 100%, and the results are shown in FIG. 2. Cell viability was determined using an MTT assay. […] In particular, as the concentration of the decursin derivative increased to 12.5 μM or higher, the difference in cell-killing effect became more pronounced.
Furthermore, the synergy score of the cytotoxicity of the combination of gefitinib with decursin or with the decursin derivative compound of Example 5 against A549 cells was calculated using the Synergyfinder webtool, and the results are shown in FIG. 3. A calculated synergy score of 10 or more was considered to indicate a synergistic effect, a score between −10 and 10 was considered to indicate an additive effect, and a score below −10 was considered to indicate an antagonistic effect.

Data set [2] relates to A549. Put plainly: MTT cytotoxicity evaluation against A549 cells. It counts as cell-based, human. The following applies: for IC50: Homo sapiens, A549, 48 h, 48 hours. The protocol: as §1
To measure cytotoxicity, an MTT assay was used. Specifically, A549 cells cultured according to Experimental Example 1 were seeded into a 96-well plate at a density of 2.5×10^4 cells/mL in 100 μL, and incubated for 24 hours. Thereafter, the cells were treated with either the compounds prepared according to Examples 1 to 27 or, as comparative agents, decursin or docetaxel. The prepared compounds and decursin were each administered to the A549 cell line at concentrations of 0 μM (untreated), 12.5 μM, 25 μM, 50 μM, 100 μM, and 200 μM, while docetaxel was administered at concentrations of 0 nM (untreated), 0.1 nM, 1 nM, 10 nM, 100 nM, and 1,000 nM, followed by incubation for an additional 48 hours. Then, 20 μL of MTT solution was added (Method 1). Alternatively, the compounds prepared according to Examples 28 to 30, the compound of Example 5 as a reference compound or, as comparative agents, decursin or docetaxel, were used. The prepared compounds, the compound of Example 5, and decursin were each administered at concentrations of 0 μM (untreated), 3.125 μM, 6.25 μM, 12.5 μM, 25 μM, and 50 μM, while docetaxel was administered at concentrations of 0 nM (untreated), 0.6 nM, 1.25 nM, 2.5 nM, 5 nM, and 10 nM, and treated in the same manner as described in Method 1 (Method 2). The cells treated with MTT solution were incubated for 2 hours, the medium was removed, and the formazan blue crystals formed by the cells were treated with an MTT lysis buffer, followed by incubation in a cell incubator for 24 hours. The MTT lysis buffer was prepared by mixing N,N-dimethylformamide with water in a 1:1 ratio to give a solution containing 20% SIDS (sodium dodecyl sulfate) at the final concentration. The optical density at 590 nm was measured using a microplate reader (FIGS. 1a to 1d). Based on the measured values, the cytotoxicity (IC50) against A549 was calculated, and the results are disclosed in Table 1 together with the structural formulae.

The mark [3] stands for this setting: Method 2 (marked *): 3.125-50 μM.

In the case of `CC1(C)Oc2cc3oc(=O)ccc3cc2C[C@@H]1OC(=O)/C=C/c1ccoc1` [Example 5, (S,E)-2,2-dimethyl-8-oxo-2,3,4,8-tetrahydropyrano[3,2-g]chromen-3-yl 3-(furan-3-yl)acrylate], the “synergy score of cytotoxicity against A549” value in data set [1] (10 μM gefitinib plus 6.25 μM compound, Synergyfinder webtool, score of 10 or more = synergistic) is around 15. Moreover, the “cytotoxicity against A549 on co-administration with gefitinib” value was “superior to that observed with co-administration of decursin and gefitinib” in data set [1]; “synergistic cell-killing effect” in data set [1] (listed as compound of Formula 2). Also, the IC50 in data set [2] (Method 1: 12.5-200 μM) came out at 30.3 µM; in data set [2] (setting [3]) it was 7.88 µM. For the same molecule, the “cell-killing effect against human lung cancer cell line A549 compared to decursin” value in data set [2] (single agent) was “superior cell-killing effect; also recorded: most potent effect”.
In data set [2] (Method 1: 12.5-200 μM), `CC1(C)Oc2cc3oc(=O)ccc3cc2[C@@H](NC(=O)/C=C/c2ccc3c(c2)OCO3)[C@@H]1O` [Example 25, (E)-3-(benzo[d][1,3]dioxol-5-yl)-N-((3S,4R)-3-hydroxy-2,2-dimethyl-8-oxo-2,3,4,8-tetrahydropyrano[3,2-g]chromen-4-yl)acrylamide] showed a half-maximal inhibitory concentration (IC50) of 151 µM.
The same measure, in the same setting: then `CN(C)S(=O)(=O)c1ccc(/C=C/C(=O)N[C@@H]2c3cc4ccc(=O)oc4cc3OC(C)(C)[C@H]2O)cc1` [Example 26, (E)-3-(4-(N,N-dimethylsulfamoyl)phenyl)-N-((3S,4R)-3-hydroxy-2,2-dimethyl-8-oxo-2,3,4,8-tetrahydropyrano[3,2-g]chromen-4-yl)acrylamide], with above 200 µM; and `CC1(C)Oc2cc3oc(=O)ccc3cc2[C@@H](NC(=O)/C=C/c2ccc(C(F)(F)F)cc2)[C@@H]1O` [Example 27, (E)-N-((3S,4R)-3-hydroxy-2,2-dimethyl-8-oxo-2,3,4,8-tetrahydropyrano[3,2-g]chromen-4-yl)-3-(4-(trifluoromethyl)phenyl)acrylamide], with 73.4 µM.
The molecule `CC1(C)Oc2cc3oc(=O)ccc3cc2C[C@@H]1OC(=O)CCc1ccoc1` [Example 28, (S)-2,2-dimethyl-8-oxo-2,3,4,8-tetrahydropyrano[3,2-g]chromen-3-yl 3-(furan-3-yl)propanoate] showed an IC50 in data set [2] (setting [3]) of 96.1 µM.
On the same count and under the same terms, the same measure for `CN(C)c1ccc(CC(=O)O[C@H]2Cc3cc4ccc(=O)oc4cc3OC2(C)C)cc1` [Example 29, (S)-2,2-dimethyl-8-oxo-2,3,4,8-tetrahydropyrano[3,2-g]chromen-3-yl 4-(dimethylamino)phenylacetate]: 52.4 µM.
Same read-out and setting: then `CN(C)c1ccc(/C=C/C(=O)O[C@H]2Cc3cc4ccc(=O)oc4cc3OC2(C)C)cc1` [Example 30, (S,E)-2,2-dimethyl-8-oxo-2,3,4,8-tetrahydropyrano[3,2-g]chromen-3-yl 3-(4-(dimethylamino)phenyl)acrylate], with 151 µM.
